Test results: publication PMC11767451, “Novel Approaches to Monitor Pharmacokinetics and Metabolism of Gemcitabine-Ibandronate Conjugate in Mice and Dogs” (Molecules, 2025)

Experiments:
[1] = Proof-of-concept mouse PK study, plasma levels of GEM-IB and metabolites by HPLC-MS/MS; format: in vivo, mice; details: for Cmax: analyte = parent or metabolite; for AUC: over the observation period
Description: (§1) Assay A (GEM-IB and IB): The extraction of calibration standards, quality control samples, and PK study samples was identical. Plasma, quality control stocks, and calibrator stocks were removed from the storage freezer and kept at room temperature until fully thawed. Aliquots of 100 μL of standards/quality control or blank sample were transferred into a 1.5 mL low-binding polypropylene vial with a conical bottom and snap-on lid. An amount of 10 µL of the of the internal standard solution (15 and 10 µg/mL of IB-D3 and ATP-IS, respectively) was added and mixed. For protein precipitation, 50 μL of methanol was added and then samples were vortexed for 10 min. This was followed by centrifugation at 25,000× g for ten minutes at 4 °C (Thermo Scientific MR 23i Centrifuge, Thermo Scientific, Waltham, MA, USA). To remove remaining protein, the supernatant was transferred to 10,000 molecular weight cut off (MWCO) centrifugal filters (800 µL volume, PES 10,000 with 2.0 mL receiver tubes, Analytical Sales and Services, Flanders, NJ, USA) and centrifuged again at 25,000× g for ten minutes at 4 °C. The filtrate was transferred into HPLC vials and placed into the HPLC autosampler maintained at 4 °C.
(§2) Assay B (GEMMP, GEM dFdUMP and dFdU): The extraction of calibration standards and quality control samples was identical to that of study samples. An amount of 200 µL of plasma sample was added to a 1.5 mL snap-top Eppendorf tube with 100 µL of protein precipitation solution. The samples were then vortexed for five minutes followed by centrifugation at 25,000× g for ten minutes at 4 °C. Hereafter, supernatants were transferred to 10K Amicon centrifugal filters (Merck-Millipore, Burlington, MA, USA) and centrifuged at the same settings for 60 min. The filtrates were then transferred into HPLC vials for analysis.
(§3) Assay A (GEM-IB and IB): Quantification of the analytes was carried out using high-performance liquid chromatography–tandem mass spectrometry (HPLC-MS/MS). Chromatography was performed using an Agilent 1260 Infinity II bio-inert HPLC system (Agilent Technologies, Santa Clara, CA, USA) on a Hypercarb Porous Graphitic Carbon HPLC column (3 µm, 2.1 × 50 mm, Thermo Scientific, Waltham, MA, USA). The HPLC system consisted of an Agilent 1260 Infinity II bio-inert quaternary pump, an Agilent 1260 Infinity II bio-inert column oven, and an Agilent 1260 Infinity II bio-inert autosampler (Agilent Technologies, Santa Clara, CA, USA). An amount of 10 µL of the sample extracts was injected. The column was maintained at 22 °C. HPLC-MS-grade water supplemented with 10 mM hexafluoroisopropanol (HFIP) and 0.05% (v/v) diethyl amine (DEA) at pH 9.4 was used for the aqueous mobile phase (Buffer A) and HPLC-grade acetonitrile was used for the organic mobile phase (Buffer B). The flow rate was set to 400 µL/min throughout the assay. The initial settings were 98% Buffer A and 2% organic Buffer B for the first two minutes. During the following 0.7 min, the organic Buffer B was increased to 30%. At minute 3.5, the gradient reached 98% Buffer B, which was kept for 0.5 min, and at minute 4.2 the column was re-equilibrated to starting conditions for 2.8 min until the next injection. The HPLC system was connected to a Sciex a 5500+ triple quadrupole mass spectrometer (SCIEX, Concord, ON, Canada) via a turbo electrospray ionization source (SCIEX) operated in the negative electrospray ionization (ESI) mode. Data were acquired in negative multiple reaction monitoring (MRM) mode and all compounds were detected as [M–H ]^−. The ion transitions used during the multiple reaction monitoring mode were m/z = 318→236, 321→239, 643→342, and 521→79 for IB, IB-D3, GEM-IB, and adenosine-^13C10,^15N5 5′-triphosphate (^13C10-^15N5-ATP), respectively. The dwell time for analysis was set to 50 ms. The curtain gas was kept at 20 psi and the ion source gas at 55 psi. The ion spray voltage was −4500 volts, and the temperature of the ion source was set to 400 °C. […]

[2] = Proof-of-concept dog PK study, plasma levels of GEM-IB and metabolites by HPLC-MS/MS; format: in vivo, beagle dogs; details: for Cmax: analyte = parent or metabolite; for AUC: over the observation period; for half-life: dog, plasma, 5 mg/kg
Description: as §1, §2, §3

[3] = ip, after GEM-IB 5 mg/kg i.p., read-out: Tmax
[4] = mouse, plasma, ip, 5 mg/kg, after GEM-IB 5 mg/kg i.p., read-out: AUC
[5] = mouse, plasma, ip, 5 mg/kg, after GEM-IB 5 mg/kg i.p., read-out: T1/2 (converted)
[6] = after GEM-IB 5 mg/kg 30 min i.v. infusion
[7] = beagle, iv, after GEM-IB 5 mg/kg 30 min i.v. infusion
[8] = beagle, iv, after GEM-IB 5 mg/kg 30 min i.v. infusion, read-out: T1/2 (converted)
[9] = mouse, plasma, ip, 5 mg/kg, after i.p. injection of GEM-IB 5 mg/kg, read-out: half-life
[10] = beagle, iv, after the end of the 30 min i.v. infusion of GEM-IB 5 mg/kg, read-out: half-life

Row | Structure (SMILES) | Rate Constant ([1]; after GEM-IB 5 mg/kg i.p.) [h⁻¹] | Cmax ([1]; ip, after GEM-IB 5 mg/kg i.p.) [ng/mL] | Tmax [1, 3] [min] | AUC [1, 4] [ng·h/mL] | half-life [1, 5] [min] | Tmax [2, 7] [min] | Cmax [2, 7] [ng/mL] | AUC [2, 7] [ng·h/mL] | Rate Constant [2, 6] [h⁻¹] | half-life [2, 8] [min] | half-life [1, 9] [min] | half-life [2, 10] [min] | other results
1 | O=c1ccn([C@@H]2O[C@H](COP(=O)(O)O)[C@@H](O)C2(F)F)c(=O)[nH]1 [dFdUMP, 2′,2′-difluoro-2′-deoxyuridine-5′-phosphate] | 11.1 | 130 | 4.98 | – | 3.78 | 30 | 23 | 11 | 7.0 | 5.94 | – | – | AUC ([1]; after GEM-IB 5 mg/kg i.p.): 38 ng·h/mL; AUC ([1]; after GEM-IB 5 mg/kg i.p., listed as dFdU-MP): 3389 ng·h/mL
2 | CCCCCN(C)CCC(O)(P(=O)(O)O)P(=O)(O)O [IB, ibandronate] | 2.6 | 22800 | 4.98 | 10700 | 16.1 | 30 | 4740 | 5720 | 0.7 | 55.9 | 16 | 55 | –
3 | O=c1ccn([C@@H]2O[C@H](CO)[C@@H](O)C2(F)F)c(=O)[nH]1 [dFdU, 2′,2′-difluoro-2′-deoxyuridine] | 0.4 | 832 | 60 | – | 108 | 270 | 330 | 6570 | 0.1 | 591 | – | – | –
4 | Nc1ccn([C@@H]2O[C@H](CO)[C@@H](O)C2(F)F)c(=O)n1 [GEM, gemcitabine] | 1.5 | 2120 | – | – | – | 30 | 684 | 1620 | 0.5 | 90.7 | – | – | T1/2 ([1]; after GEM-IB 5 mg/kg i.p.): 26.9 min; Tmax ([1]; after GEM-IB 5 mg/kg i.p.): 4.98 min

Further lines, with some results ahead:

Row | Rate Constant ([1]; after GEM-IB 5 mg/kg i.p.) [h⁻¹] | Cmax ([1]; ip, after GEM-IB 5 mg/kg i.p.) [ng/mL] | Tmax [1, 3] [min] | AUC [1, 4] [ng·h/mL] | half-life [1, 5] [min] | Tmax [2, 7] [min] | Cmax [2, 7] [ng/mL] | AUC [2, 7] [ng·h/mL] | Rate Constant [2, 6] [h⁻¹] | half-life [2, 8] [min] | half-life [1, 9] [min] | half-life [2, 10] [min] | Structure (SMILES) | other results
5 | 4.0 | 1310 | 4.98 | 405 | 10.3 | 30 | 224 | 83 | – | – | – | – | Nc1ccn([C@@H]2O[C@H](COP(=O)(O)O)[C@@H](O)C2(F)F)c(=O)n1 [GEMMP, gemcitabine-5′-phosphate] | plasma values after the infusion period [2, 6]: below the LLOQ
6 | 5.0 | 4180 | 4.98 | 1280 | 8.28 | 30 | 795 | 295 | 50.6 | 0.84 | 8 | < 1 | CCCCCN(C)CCC(O)(P(=O)(O)O)P(=O)(O)OP(=O)(O)OC[C@H]1O[C@@H](n2ccc(N)nc2=O)C(F)(F)[C@@H]1O (stereo partly drawn) [GEM-IB] | CL ([1]; after GEM-IB 5 mg/kg i.p.): 65.65 mL/min/kg; Vdss ([1]; after GEM-IB 5 mg/kg i.p.): 0.469 L/kg; clearance [2, 7]: 284 mL/min/kg; Vd ([2]; beagle, iv, after GEM-IB 5 mg/kg 30 min i.v. infusion, read-out: Vdss): 1.93 L/kg
